From patent publication US7855076B2, “Use of discoidin domain receptor 1 (DDR1) and agents that affect the DDR1/collagen pathway” (The United States of America as represented by the …, priority 2002, dated 2010) come the findings set out here.

Common to all, as to assay type: cell-based, human
The test system of one test is DDR1 protein. Description: DDR1 protein expression in leukocytes by immunoprecipitation and Western blotting. Particulars: PBMC; TNF-α 5 ng/ml or GM-CSF 10 ng/ml, 36 hours. The protocol:
For Western blot analysis, cell lysates were prepared from freshly isolated PBMC, PBMC incubated overnight in RPMI 1640 containing 10% FCS, and MCF-7 cells. Cells were lysed on ice for 20 minutes in a buffer containing 50 mM Hepes, 150 mM NaCl, 1% Triton X-100, 10% glycerol, 10 mM NaF, 1 mM ethylenediamine tetraacetic acid, […], 1 mg/ml leupeptin, 1 mM phenylmethylsulfonyl fluoride, 1 mg/ml aprotinin, and 1 mg/ml pepstatin A. The lysates were spun, and the supernatants were collected. The samples were incubated with approximately 20 μl packed volume of PGS for 1 hour at 4° C. After centrifugation, supernatants were collected, mixed with 1 μg/ml normal rabbit IgG or polyclonal anti-human DDR1 IgG, and incubated for 1 hour at 4° C. PGS (20 μl) was then added and incubated for another 1 hour. IgG-coupled PGS was washed with the buffer containing 50 mM Hepes, 150 mM NaCl, 0.1% Triton X-100, 10% glycerol buffer three times, and 20 μl double-strength sample buffer (20% glycerol, 6% sodium dodecylsulfate (SDS), 10% 2-mercaptoethanol) was added. The samples were boiled for 10, minutes. Eluted proteins were analyzed on 7.5% polyacrylamide gels by SDS polyacrylamide gel electrophoresis (SDS-PAGE) and transferred electrophoretically to nitrocellulose membranes (Amersham, Arlington Heights, Ill.) at 200 mA for 2 hours by a semi-dry system. The membranes were incubated with polyclonal anti-human DDR1 or anti-phosphotyrosine IgG, followed by sheep anti-mouse IgG coupled with horseradish peroxidase (Amersham). Peroxidase activity was visualized by the Enhanced Chemiluminescence Detection System (Amersham).
There was no detectable DDR1 protein in freshly isolated PBMC. DDR1 protein was detected clearly after overnight incubation in RPMI 1640 containing 10% FCS. In order to study the kinetics of DDR1 protein expression, PBMC were incubated with or withour addition of TNF-α (5 ng/ml), or GM-CSF (10 ng/ml) for 36 hours and cell lysates were prepared. Cell lysates were subjected to immunoprecipitation with anti-DDR1 IgG or control IgG. […]

The next test relates to DDR1. Description: Cell-surface DDR1 expression on PMN by flow cytometry. The protocol:
PMN were incubated in presence of IFN-γ or GM-CSF for 24 hours and the expression of cell-surface DDR1 was measured by flow cytometry using an antibody raised against the extracellular domain of the receptor. One hundred thousand cells were suspended in 50 μl of cold PBS containing 0.1% NaN3, […] BSA and 200 μg/ml human IgG in a Falcon 2052, tube, and incubated for 10 minutes on ice. One μg of anti-DDR1 rabbit polyclonal antibody raised aginst the N-terminus of DDR1 (Transgenic, Inc., Kumamoto, Japan), or control mouse IgG was added to each tube and the cells were incubated for another 15 minutes on ice. The cells were washed with PBS, and then incubated with 1 μg of FITC-conjugated goat anti-mouse IgG for 15 minutes on ice. At the end of incubation, PI was added to each tube (100 μM). The cells were washed by PBS, and subsequently analyzed by using a FACS scan (Becton Dickinson). Dead cells, determined by the incorporation of PI, were gated out. Results were processed by using the Cellquest software (Becton Dickinson).

In a further test the test system is IκBα. The test is described as follows: IκB degradation in PMA-treated THP-1 cells, Western blotting. Particulars: 10 nM PMA. The protocol: Mock-transduced and DDR1b-overexpressing THP-1 cells were plated at 5×10^6cells/ml and treated with 10 nM PMA on collagen-coated plates for varous times. Ten million cells were lysed on ice for 20 minutes in a buffer containing 50 mM NaCl, 20 mM Tris-HCl, 50 mM sodium fluoride, 30 mM Na4P2O7, 5 mM EGTA, 3 mM sodium orthovanadate, 1% Triton X-100; 1 mg/ml leupeptin, 1 mM PMSF, 1 mg/ml aprotinin, 1 mg/ml pepstatin A and 100 μM sodium orthovanadate in […] lysates were spun and the supernatants were collected. Each sample was boiled in double-strength sample buffer for 10 minutes, electrophoresed on 10% polyacrylamide gels by SDS-PAGE, and transferred electrophoretically to nitrocellulose membranes at 150 mA for 1 hour by a semi-dry system. The membranes were incubated with mouse monoclonal anti-IκB antibody followed by sheep anti-mouse IgG coupled with horseradish peroxidase. Peroxidase activity was visualized by the Enhanced Chemiluminescence Detection System (Amersham).

Take TNF-α: the “level of DDR1 protein expression” value in the test on DDR1 protein was “increased”. In addition, the “IFNγ-induced DDR1 expression” value in the test with DDR1 is listed as “almost completely inhibited”.

As to collagen, in the test on IκBα (DDR1b-overexpressing cells, at 2 and 3 hours), the “amounts of IκBα” value is on record as “decreased”. The “level of IκBα” value in the test on IκBα (mock-transduced cells) is given as “unchanged”.
